Measurements as given in patent publication US6589992B2, “Inhibiting collagen-induced platelet aggregation” (Parker Hughes Institute, priority 1999, dated 2003).
Entries after “also recorded” stand apart in the source; their conditions may differ.

How the values were obtained:
SRC = target: T1, SRC (Homo sapiens, UniProt P12931); test: SRC activity in platelets; assay type: cell-based; settings: data not shown
T1 construct: endogenous in cells; host or cells: platelets

platelets [1] = test: Thrombin-induced platelet aggregation (aggregometer); assay type: cell-based, human; settings: thrombin 0.1 U/mL
Procedure: Platelet aggregation with respect to control was monitored in a Chronolog Model 560 Dual Chamber Platelet Aggregometer.
Controls were treated with vehicle (PBS supplemented with 1% DMSO) alone. The treated PRP samples were diluted 1:4 with sterile normal saline and platelets were stimulated with collagen (2 μg/mL or 5 μg/mL, Chronolog Inc., Philadelphia, Pa.) or thrombin (0.1 U/mL, Chronolog Inc., Philadelphia, Pa.) as agonists under stirred conditions. Platelet aggregation was monitored in a platelet aggregometer (Model 560 Dual Chamber-Instrument, Chronolog Ind., Philadelphia, Pa.) for 5 minutes.

[2] = Pharmacokinetics in mice (HPLC plasma levels); settings: mouse, in vivo
Procedure: All collected blood samples were heparinized and centrifuged at 7,000xg for 5 minutes in a microcentrifuge to obtain plasma. The plasma samples were stored at −20° C. until analysis.
The analytical column was equilibrated and eluted under isocratic conditions utilizing a flow rate of 1.0 mL/min at ambient temperature. The wavelength of detection was set at 294 nm. Peak width, response time, and slit were set at >0.03 min, 0.55 sec, and […], respectively. […] Following centrifugation at 300xg for 5 minutes, the supernatant was used for HPLC analysis using a system comprised of a Hewlett Packard (HP) series 1100 instrument equipped with an automated electronic degasser, a quaternary pump, an autosampler, an automatic thermostatic column compartment, diode array detector and a computer with a Chemstation software program for data analysis (Chen and Uckun, 1999; Malaviya et al., 2000). All extraction procedures were carried out at room temperature.
The unweighed linear regression analysis of the standard curves was performed by using the CA-Cricket Graph III computer program, Version 1.0 (Computer Association, Inc., Islandia, N.Y.). […] Pharmacokinetic modeling and pharmacokinetic parameter estimations were carried out using the pharmacokinetics software, WinNonlin Program, Professional version 3.0 (Pharsight Inc., Mountain view, Calif.) (Chen and Uckun, 1999; Malaviya et al. 2000; Uckun et al., 1999).
The elimination half-life was estimated by linear regression analysis of the terminal phase of the plasma concentration time profile. The area under the concentration time curve (AUC) was calculated by the linear trapezoidal rule between the first (0 hours) and last sampling time plus C/k, where C is the concentration at the last sampling time and k is the elimination rate constant. The systemic clearance (CL) was determined by dividing the does by the AUC (Chen and Uckun, 199; Malaviya et al., 2000; Uckun et al., 1999).
A one-compartment, first order pharmacokinetic model was fit into the pharmacokinetic data. The numbers represent the average values estimated from the composite plasma concentration-time curve for pooled data. The mean±SEM values are indicated in parentheses. The values for the apparent volume of distribution (Vc) and systemic clearance (CL) were not corrected for bioavailability. t½=terminal elimination half-life; tmax=the time required to reach the maximum plasma drug concentration after i.p. administration.

SYK = target: T2, SYK (Homo sapiens, UniProt P43405); test: SYK activity in platelets; assay type: cell-based; settings: data not shown
T2 construct: endogenous in cells; host or cells: platelets

TEC kinase = target: T3, TEC kinase (Homo sapiens, UniProt P42680); test: TEC immune complex kinase assay from collagen-stimulated platelets; assay type: cell-based
T3 sequence (P42680 1-631): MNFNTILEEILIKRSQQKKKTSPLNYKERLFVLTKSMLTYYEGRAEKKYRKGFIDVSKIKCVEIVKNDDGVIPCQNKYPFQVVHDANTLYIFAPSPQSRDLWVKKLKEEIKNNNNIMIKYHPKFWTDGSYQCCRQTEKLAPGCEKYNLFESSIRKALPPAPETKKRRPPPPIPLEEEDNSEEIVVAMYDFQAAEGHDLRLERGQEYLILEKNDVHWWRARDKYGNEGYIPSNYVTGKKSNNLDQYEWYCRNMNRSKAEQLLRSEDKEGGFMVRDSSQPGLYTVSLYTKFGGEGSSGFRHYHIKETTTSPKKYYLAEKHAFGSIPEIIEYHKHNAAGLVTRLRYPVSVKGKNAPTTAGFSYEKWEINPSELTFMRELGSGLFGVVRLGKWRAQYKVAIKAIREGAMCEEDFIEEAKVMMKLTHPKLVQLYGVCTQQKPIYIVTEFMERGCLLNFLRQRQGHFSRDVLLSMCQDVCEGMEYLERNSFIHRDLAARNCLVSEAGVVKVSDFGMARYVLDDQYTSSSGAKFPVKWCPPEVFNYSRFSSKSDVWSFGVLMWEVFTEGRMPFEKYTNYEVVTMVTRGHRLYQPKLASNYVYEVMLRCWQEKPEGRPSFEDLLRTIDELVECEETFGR
Procedure: Platelets were isolated from platelet rich plasma (PRP) purchased from the Memorial Blood Bank (Minneapolis, Minn.) as previously described (Asselin et al. 1997) and used at a concentration of 3×10^9 cells/mL in a modified Tyrode's buffer (137 mM NaCl, 2.7 mM KCl, 0.9 mM MgCl2, 5.5 mM glucose, 3.3 mM NaH2PO4, 3.8 mM Hepes, pH 7.4). […] Platelets were then stimulated at 37° C. with 2 μg/mL (or 10 μg/mL) collagen or 0.1 U/mL thrombin (Chronolog Inc., Philadelphia, Pa.). Stimulation was stopped and platelets were lysed at the indicated time points by adding ice cold 3x Triton X-100 lysis buffer (150 mM NaCl, 15 mM EGTA, 3% Triton X-100, 3% Sodium deoxycholate, 0.3% SDS, 3 mM PMSF, 3 mM Na3 VO4, 60 μg/mL leupeptin, 60 μg/mL aprotinin, 50 mM Tris-HCl pH 7.4) and incubating for 1 hour on ice. […]
(§1) For each drug concentration, a BTK/TEC kinase activity index as determined by comparing the ratios of the kinase activity in phosphorimager units (PIU) and density of the protein bands in densitometric scanning units (DSU) to those of the baseline sample and using the formula: Activity Index=[PIU of kinase band/DSU of BTK/TEC protein band]test sample: [PIU of kinase band/DSU of BTK/TEC protein band]baseline control sample (FIGS. 1A-1D).

BTK = BTK (Homo sapiens, UniProt Q06187); test: BTK immune complex kinase assay from collagen-stimulated platelets; settings: 100 μM
Procedure: Platelets were isolated from platelet rich plasma (PRP) purchased from the Memorial Blood Bank (Minneapolis, Minn.) as previously described (Asselin et al. 1997) and used at a concentration of 3×10^9 cells/mL in a modified Tyrode's buffer (137 mM NaCl, 2.7 mM KCl, 0.9 mM MgCl2, 5.5 mM glucose, 3.3 mM NaH2PO4, 3.8 mM Hepes, pH 7.4). […] Platelets were then stimulated at 37° C. with 2 μg/mL (or 10 μg/mL) collagen or 0.1 U/mL thrombin (Chronolog Inc., Philadelphia, Pa.). Stimulation was stopped and platelets were lysed at the indicated time points by adding ice cold 3x Triton X-100 lysis buffer (150 mM NaCl, 15 mM EGTA, 3% Triton X-100, 3% Sodium deoxycholate, 0.3% SDS, 3 mM PMSF, 3 mM Na3 VO4, 60 μg/mL leupeptin, 60 μg/mL aprotinin, 50 mM Tris-HCl pH 7.4) and incubating for 1 hour on ice. Following removal of the membranous fraction by centrifugation (12,000xg, 30 min) the samples were subjected to immunoprecipitation utilizing antibodies raised against BTK (Santa Cruz Biotechnologies, Santa Cruz, Calif.), TEC (Upstate Biotechnology, Lake Placid, N.Y.) and PLCγ2 (Santa Cruz Biotechnologies, Santa Cruz, Calif.) (Vassilev et al., 1999). Immunoprecipitations, immune-complex protein kinase assays, and immunoblotting on PVDF membranes (Milipore, Bedford, Mass.) using the ECL chemiluminescence detection system (Amersham Life Sciences, Arlington Heights, Ill.) were conducted as described previously (Mahajan et al., 1999; Sudbeck et al., 1999; Uckun et al., 1996a; Uckun et al., 1996b).
For immunoblotting, antibodies against phosphotyrosine (Transduction Labs, Lexington, Ky.), BTK (Santa Cruz Biotechnologies, Santa Cruz, Calif.), TEC (Upstate Biotechnology, Lake Placid, N.Y.) and PLCγ2 (Santa Cruz Biotechnologies, Santa Cruz, Calif.) were used. Horse radish peroxidase-conjugated sheep anti-mouse, donkey anti-rabbit secondary antibodies were purchased from Transduction Laboratories (Lexington, Ky.). Horse radish peroxidase-conjugated sheep anti-goat antibodies were purchased from Santa Cruz (Santa Cruz, Calif.). Following electrophoresis, kinase gels were dried onto Whatman 3M filter paper and subjected to phosphoimaging on a Molecular Imager (Bio-Rad, Hercules, Calif.) as well as autoradiography on film. Similarly, all chemiluminescent BTK/TEC Western blots were subjected to three dimensional densitometric scanning using the Molecular Imager and Imaging Densitometer using the Molecular Analyst/Macintosh version 2.1 software following the specifications of the manufacturer (Bio-Rad).
Antibodies raised against BTK and TEC utilized for immunoprecipitations and Western blot analysis were purchased from Santa Cruz (Santa Cruz, Calif.).
as §1
The samples were subjected to immunoprecipitation utilizing antibodies raised against BTK. The BTK immune complexes were subjected to immune kinase assays.

platelets [3] = test: Collagen-induced calcium mobilization in platelets (fluorescence); assay type: cell-based, human; settings: 100 μM; collagen 20 μg/ml
Procedure: Platelets were loaded with […] (Molecular Probes, Eugene Oreg.) for 15 minutes at 37 degrees C. […] The changes in fluorescence were monitored on a spectrofluorimeter.

ICR mice = test: Thromboplastin-induced fatal thromboembolism in mice; assay type: in vivo; settings: for median survival time / probability of event-free survival after thromboplastin challenge: N=10
Procedure: The mice were challenged with 25 mg/kg thromboplastin (Sigma, St. Louis, Mo.) via a bolus i.v. injection in to the tail vein as previously described (Sato et al., 1998). At the time of thromboembolism-related death, after the thromboplastin injection or elective sacrifice at 48 hours using ketamine/xylazine, all mice were perfused with PBS followed by 4% phosphate buffered formalin. PBS and formalin were pumped through the left ventricle of the heart and allowed to exit through a 3 mm incision through the anterior wall of the right ventricle.

mice = test: Toxicity of LFM-A13 in mice; settings: mice N=160, 12.5 mg/kg to 100 mg/kg i.p.
Excerpt: For histopathologic studies, tissues were fixed in 10% neutral buffered formalin, dehydrated, and embedded in paraffin by routine methods.

[4] = 30 min, 0 seconds after 2 μg/ml collagen
[5] = 30 min, 90 seconds after 2 μg/ml collagen

Chain of BTK (Q06187 whole entry): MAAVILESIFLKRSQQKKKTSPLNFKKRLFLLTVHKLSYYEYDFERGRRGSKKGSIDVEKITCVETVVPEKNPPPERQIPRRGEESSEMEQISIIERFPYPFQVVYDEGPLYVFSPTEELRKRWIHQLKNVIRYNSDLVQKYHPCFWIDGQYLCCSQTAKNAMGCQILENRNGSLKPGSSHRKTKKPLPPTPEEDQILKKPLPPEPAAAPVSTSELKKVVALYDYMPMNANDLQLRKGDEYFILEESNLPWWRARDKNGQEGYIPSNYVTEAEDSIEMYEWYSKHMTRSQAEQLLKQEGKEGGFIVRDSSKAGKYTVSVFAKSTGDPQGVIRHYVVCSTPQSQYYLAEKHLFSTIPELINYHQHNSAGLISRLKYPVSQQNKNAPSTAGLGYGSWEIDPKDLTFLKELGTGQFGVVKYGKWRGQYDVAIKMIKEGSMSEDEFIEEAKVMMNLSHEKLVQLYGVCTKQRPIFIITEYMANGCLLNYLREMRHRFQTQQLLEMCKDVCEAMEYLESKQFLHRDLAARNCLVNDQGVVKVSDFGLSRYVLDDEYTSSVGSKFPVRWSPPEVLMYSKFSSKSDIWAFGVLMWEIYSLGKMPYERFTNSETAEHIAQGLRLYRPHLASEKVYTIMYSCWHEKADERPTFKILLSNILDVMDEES
T1 sequence (P12931 whole entry): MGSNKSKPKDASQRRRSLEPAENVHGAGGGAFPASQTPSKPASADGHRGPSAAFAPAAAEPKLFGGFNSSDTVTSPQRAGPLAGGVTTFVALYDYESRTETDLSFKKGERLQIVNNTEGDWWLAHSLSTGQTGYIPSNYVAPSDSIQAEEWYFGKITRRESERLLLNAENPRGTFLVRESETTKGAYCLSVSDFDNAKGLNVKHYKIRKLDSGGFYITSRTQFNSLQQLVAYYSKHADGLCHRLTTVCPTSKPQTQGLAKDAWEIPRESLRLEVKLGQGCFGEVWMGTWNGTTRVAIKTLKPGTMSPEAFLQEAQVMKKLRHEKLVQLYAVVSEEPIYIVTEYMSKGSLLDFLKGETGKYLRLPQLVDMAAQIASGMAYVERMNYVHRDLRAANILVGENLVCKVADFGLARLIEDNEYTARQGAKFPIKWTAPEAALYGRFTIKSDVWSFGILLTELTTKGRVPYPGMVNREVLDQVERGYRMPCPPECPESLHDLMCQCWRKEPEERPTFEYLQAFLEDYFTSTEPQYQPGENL

SMILES: C/C(O)=C(\C#N)C(=O)Nc1cc(Br)ccc1Br [LFM-A13, α-cyano-β-hydroxy-β-methyl-N-(2,5-dibromophenyl)-propenamide]
- baseline and collagen-induced SRC activity in platelets (SRC): did not inhibit the baseline activity of SYK or SRC or prevent collagen-induced SYK and SRC activation
- thrombin-induced platelet aggregation, PRP (platelets [1]; PRP treated 20 min or 24 hours): No significant effect
- effect on thrombin-induced platelet aggregation (platelets [1]; up to 1000 μM): No significant effect; also recorded: not impaired
- AUC ([2]; ip, 10 mg/kg): 66.3 ± 3 µM·h
- Cmax ([2]; ip, 10 mg/kg): 94 ± 8 µM
- AUC ([2]; ip, 20 mg/kg): 183 ± 14 µM·h
- Cmax ([2]; ip, 20 mg/kg): 243 ± 16 µM
- AUC ([2]; ip, 25 mg/kg): 308 ± 31 µM·h
- Cmax ([2]; ip, 25 mg/kg): 383 ± 35 µM
- AUC ([2]; ip, 40 mg/kg): 653 ± 47 µM·h
- Cmax ([2]; ip, 40 mg/kg): 640 ± 44 µM
- AUC ([2]; ip, 50 mg/kg): 1020 ± 31 µM·h
- Cmax ([2]; ip, 50 mg/kg): 940 ± 16 µM
- AUC ([2]; iv, 25 mg/kg): 384 ± 30 µM·h
- Cmax ([2]; iv, 25 mg/kg): 731 ± 22 µM
- baseline and collagen-induced SYK activity in platelets (SYK): did not inhibit the baseline activity of SYK or SRC or prevent collagen-induced SYK and SRC activation
- collagen-induced stimulation of TEC kinase in platelets (TEC kinase; collagen-stimulated platelets): prevented collagen-induced stimulation of TEC kinase
- baseline activity of TEC in unstimulated platelets (TEC kinase; unstimulated platelets): did not reduce the baseline activity of TEC
- DSU (density of BTK protein band, densitometric scanning units) (BTK; [4]): 1236
- PIU (BTK autophosphorylation, phosphorimager units) (BTK; [4]): 78
- BTK kinase activity in collagen-stimulated platelets (BTK; 30 min, 2 μg/mL collagen): completely prevented collagen-induced stimulation of BTK; also recorded: significantly inhibited BTK kinase activity
- DSU (density of BTK protein band, densitometric scanning units) (BTK; [5]): 1432
- PIU (BTK autophosphorylation, phosphorimager units) (BTK; [5]): 68
- reduction of baseline BTK activity in platelets (BTK; 30 min at 37° C.): > 90%
- collagen-induced calcium mobilization (platelets [3]): significantly reduced
- median survival time (ICR mice; LFM-A13 20 mg/kg): 8.0 min
- probability of event-free survival after thromboplastin challenge (ICR mice; LFM-A13 20 mg/kg): 20±13%
- median survival time (ICR mice; LFM-A13 40 mg/kg): > 2880 min
- probability of event-free survival after thromboplastin challenge (ICR mice; LFM-A13 40 mg/kg): 80±13%
- drug-related toxic lesions in organs (ICR mice; LFM-A13 pretreated, thromboplastin-challenged mice): No drug-related toxic lesions were detected
- toxicity, single i.p. bolus (mice): not toxic
